Data as given in patent US8497303B2, “Method to enhance aqueous solubility of poorly soluble actives” (Dow Global Technologies LLC, priority 2008, dated 2013).
Where two headings read alike, the source gives them in different places.

Experiments:
[1] = for Percent Loading Using MPEG 350: saturated solution, HPLC
Description: The solution is then stirred with a vortex mixer for approximately 1 to 2 minutes, then shaken with an automated shaker for about 45 minutes. […] The sample is then left overnight in a water bath at about 29° C.
The solution is stirred with a vortex mixer for approximately 1 to 2 minutes, then shaken with an automated shaker for about 45 minutes. […] The sample is left overnight in a water bath at about 30° C.
The solutions are then filtered through a syringe filter and the concentrations are characterized by HPLC. The percent water in the MPEG solutions varies from 0 to 20 percent.
The solution is then filtered through a syringe filter and the concentration is characterized by HPLC. The percent water in the MPEG solutions varies from 0 to 20 percent.

[2] = for Percent Loading Using PEG 400: saturated solution, HPLC
Description: For comparison, solutions of PEG 400 and water are prepared in an analogous manner to those including the MPEG 350.
For comparison, solutions of PEG 400 and water are prepared in an analogous manner.

| Structure (SMILES) | Maximum solubility for MPEG 350:water blends greater than that for PEG 400:water blends [1] | Percent Loading Using MPEG 350 ([1]; 0 percent water in MPEG 350) | Percent Loading Using MPEG 350 ([1]; 5 percent water in MPEG 350) | Percent Loading Using MPEG 350 ([1]; 10 percent water in MPEG 350) | Percent Loading Using MPEG 350 ([1]; 15 percent water in MPEG 350) | Percent Loading Using MPEG 350 ([1]; 20 percent water in MPEG 350) | Loading with MPEG:water blends relative to PEG:water blends ([1]; when water is added) | Amount solubilized by neat PEG 400 solution relative to neat MPEG 350 solution [2] | Percent Loading Using PEG 400 ([2]; 0 percent water in PEG 400) | Percent Loading Using PEG 400 ([2]; 5 percent water in PEG 400) | Percent Loading Using PEG 400 ([2]; 10 percent water in PEG 400) | Percent Loading Using PEG 400 ([2]; 15 percent water in PEG 400) | Percent Loading Using PEG 400 ([2]; 20 percent water in PEG 400) | Solubility (maximum loading) in PEG 400 [2] | Increase in loading compared to the MPEG 350 solution containing no water ([1]; 95:5 MPEG 350:water vs MPEG 350 without water) | More loading with 95:5 MPEG 350:water blend compared to the best PEG 400:water blend ([1]; 95:5 MPEG 350:water vs PEG 400:water blend with highest loading) | Appearance of solution in MPEG 350 ([1]; approximately 15.4 weight percent solution, left overnight in water bath at about 30° C.) | Amount of drug loading in MPEG 350 solution higher than in PEG 400 solution ([1]; neat MPEG 350 vs neat PEG 400) |
| --- | --- | --- | --- | --- | --- | --- | --- | --- | --- | --- | --- | --- | --- | --- | --- | --- | --- | --- |
| CC(=O)Nc1ccc(O)cc1 [Acetaminophen] | 10.6% | 16.20% | 21.93% | 23.62% | 24.47% | 24.01% | higher loading | slightly more | 16.82% | 20.62% | 21.78% | 22.12% | 21.59% | – | – | – | – | – |
| CC(C)Cc1ccc(C(C)C(=O)O)cc1 (centres unmarked) [Ibuprofen, ibuprofen] | – | – | – | – | – | – | – | – | 21.60% | 24.31% | 21.48% | 17.24% | 11.56% | 21.6±0.8 weight percent | – | – | – | – |
| COc1ccc2cc([C@H](C)C(=O)O)ccc2c1 [Naproxen, naproxen] | – | – | – | – | – | – | – | – | – | – | – | – | – | – | 24.4% | 29.2 weight percent | some suspended material | approximately 13.6% |
